Measurements published in US20210401773A1 (priority 2020, published 2021).

System: COVID-19
Experiment: Clinical trials/studies: case reports of ye-[…] in people with COVID-19
Type: in vivo
Conditions: case 2: taken before ye-COVIDICIN; they got worse

Structure (SMILES): CCN(CCO)CCCC(C)Nc1ccnc2cc(Cl)ccc12 (stereo not shown) [Hydroxychloroquine]
- Effect on COVID-19 in patient: did not work
